Experimental data taken from patent US20220259193A1, “KCNT1 INHIBITORS AND METHODS OF USE” (Praxis Precision Medicines, Inc., priority 2019, published 2022).

Target: T1, KCNT1 (KNa1.1, Slack) (Homo sapiens, UniProt Q5JUK3)
T1 construct: expressed in transfected cells; host or cells: HEK-TREX (tetracycline-inducible HEK cell line)
T1 sequence (Q5JUK3 1-1230): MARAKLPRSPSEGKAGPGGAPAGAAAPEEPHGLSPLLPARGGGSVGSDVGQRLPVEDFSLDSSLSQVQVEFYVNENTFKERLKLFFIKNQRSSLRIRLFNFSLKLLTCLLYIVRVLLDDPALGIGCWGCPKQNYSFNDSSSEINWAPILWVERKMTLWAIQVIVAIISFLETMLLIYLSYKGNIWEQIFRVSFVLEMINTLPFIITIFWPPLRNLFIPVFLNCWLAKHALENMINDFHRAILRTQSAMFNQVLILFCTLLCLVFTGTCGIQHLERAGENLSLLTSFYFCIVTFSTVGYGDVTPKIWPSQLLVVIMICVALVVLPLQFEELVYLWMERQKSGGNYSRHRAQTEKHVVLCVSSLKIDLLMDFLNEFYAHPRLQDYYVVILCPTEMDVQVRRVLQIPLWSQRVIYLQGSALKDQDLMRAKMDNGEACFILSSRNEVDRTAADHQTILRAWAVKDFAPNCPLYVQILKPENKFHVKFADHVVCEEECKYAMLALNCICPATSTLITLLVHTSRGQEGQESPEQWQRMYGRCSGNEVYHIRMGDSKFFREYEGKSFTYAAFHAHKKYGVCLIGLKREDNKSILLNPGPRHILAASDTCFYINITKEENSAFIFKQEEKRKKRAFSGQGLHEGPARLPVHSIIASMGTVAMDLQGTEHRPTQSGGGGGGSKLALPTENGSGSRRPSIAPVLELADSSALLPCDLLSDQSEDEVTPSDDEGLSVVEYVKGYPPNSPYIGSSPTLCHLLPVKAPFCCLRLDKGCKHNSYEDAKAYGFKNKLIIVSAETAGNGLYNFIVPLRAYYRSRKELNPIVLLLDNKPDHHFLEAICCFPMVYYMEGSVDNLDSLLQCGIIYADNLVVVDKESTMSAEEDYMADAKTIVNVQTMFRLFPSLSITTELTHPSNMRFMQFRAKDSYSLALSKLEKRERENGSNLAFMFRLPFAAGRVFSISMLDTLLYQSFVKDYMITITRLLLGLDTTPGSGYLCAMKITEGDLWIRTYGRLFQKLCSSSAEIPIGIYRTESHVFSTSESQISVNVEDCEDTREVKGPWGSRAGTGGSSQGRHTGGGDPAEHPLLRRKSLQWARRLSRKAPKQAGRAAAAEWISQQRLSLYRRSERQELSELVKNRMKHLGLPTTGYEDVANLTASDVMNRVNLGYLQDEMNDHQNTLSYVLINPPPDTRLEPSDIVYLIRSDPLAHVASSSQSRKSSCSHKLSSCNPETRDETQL
Assay: KCNT1 patch clamp assay (SyncroPatch 384PE automated patch clamp)
Type: cell-based
Details: tetracycline inducible HEK-TREX cell line; perforated patch; step from −80 mV to 0 mV; room temperature; read-out: KCNT1-WT IC50
Summary of the method: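 Tetracycline-inducible HEK-TREX cells; perforated-patch (10 μM escin) population recordings at room temperature, holding −80 mV with 100 ms step to 0 mV.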

Row | IC50 [µM] | Structure (SMILES)
1 | ≤ 1 | C[C@H](NC(=O)c1cc(C(F)(F)F)nn1CCN(C)C)c1nc(-c2ccnc(C(F)(F)F)c2)no1 [Compound 243, (S)-1-(2-(dimethylamino)ethyl)-3-(trifluoromethyl)-N-(1-(3-(2-(trifluoromethyl)pyridin-4-yl)-1,2,4-oxadiazol-5-yl)ethyl)-1H-pyrazole-5-carboxamide]
2 | ≤ 1 | C[C@H](NC(=O)c1cc(C(F)(F)F)nn1Cc1cccnc1)c1nc(-c2ccnc(C(F)(F)F)c2)no1 [Compound 253, (S)-1-(pyridin-3-ylmethyl)-3-(trifluoromethyl)-N-(1-(3-(2-(trifluoromethyl)pyridin-4-yl)-1,2,4-oxadiazol-5-yl)ethyl)-1H-pyrazole-5-carboxamide]
3 | 1 to 20 | C[C@H](NC(=O)OC(C)(C)C)c1nc(-c2cccc(F)c2)no1 [Compound 281, tert-butyl N-[(1S)-1-[3-(3-fluorophenyl)-1,2,4-oxadiazol-5-yl]ethyl]carbamate]
4 | ≥ 20 | CC(NC(=O)c1cc(C(F)(F)F)nn1C)c1nc(-c2cccc(C(=O)N(C)C)c2)no1 (stereo not drawn) [Compound 183, N-(1-(3-(3-(dimethylcarbamoyl)phenyl)-1,2,4-oxadiazol-5-yl)ethyl)-1-methyl-3-(trifluoromethyl)-1H-pyrazole-5-carboxamide]
5 | 1 to 20 | Cn1nc(C(F)(F)F)cc1C(=O)NC(c1nc(-c2cccc(F)c2)no1)C1COC1 (stereo not drawn) [Compound 147]
6 | ≤ 1 | CC[C@H](NC(=O)c1cc(-c2ccccc2)nn1C)c1nc(-c2ccnc(C)c2)no1 [Compound 226, (S)-1-methyl-N-(1-(3-(2-methylpyridin-4-yl)-1,2,4-oxadiazol-5-yl)propyl)-3-phenyl-1H-pyrazole-5-carboxamide]
7 | ≤ 1 | C[C@H](NC(=O)c1cc(C(F)(F)F)nn1C)c1nc(-c2ccnc(OCC3CC3)c2)no1 [Compound 214, (S)—N-(1-(3-(2-(cyclopropylmethoxy)pyridin-4-yl)-1,2,4-oxadiazol-5-yl)ethyl)-1-methyl-3-(trifluoromethyl)-1H-pyrazole-5-carboxamide]
8 | ≤ 1 | CC(C)Oc1cc(-c2noc([C@H](C)NC(=O)c3cc(-c4ccc(F)cc4)nn3C)n2)ccn1 [Compound 223, (S)-3-(4-fluorophenyl)-N-(1-(3-(2-isopropoxypyridin-4-yl)-1,2,4-oxadiazol-5-yl)ethyl)-1-methyl-1H-pyrazole-5-carboxamide]
9 | 1 to 20 | COC(=O)NCC(NC(=O)c1cc(C(F)(F)F)nn1C)c1nc(-c2cccc(F)c2)no1 (stereo not drawn) [Compound 168]
10 | 1 to 20 | C[C@H](NC(=O)c1cc(C(F)(F)F)nn1CC(=O)N(C)C)c1nc(-c2ccnc(C(F)(F)F)c2)no1 [Compound 251, (S)-1-(2-(dimethylamino)-2-oxoethyl)-3-(trifluoromethyl)-N-(1-(3-(2-(trifluoromethyl)pyridin-4-yl)-1,2,4-oxadiazol-5-yl)ethyl)-1H-pyrazole-5-carboxamide]
11 | ≥ 20 | CC(NC(=O)c1cc(C(F)(F)F)nn1C)c1nc(-c2cccc(C(=O)O)c2)no1 (stereo not drawn) [Compound 182, 3-(5-(1-(1-methyl-3-(trifluoromethyl)-1H-pyrazole-5-carboxamido)ethyl)-1,2,4-oxadiazol-3-yl)benzoic Acid]
12 | ≤ 1 | Cc1nn(C(C)(C)C)cc1C(=O)N[C@@H](C)c1nc(-c2cccc(F)c2)no1 [Compound 150]
13 | 1 to 20 | Cc1nn(C(C)C)cc1C(=O)NC(C)c1nc(-c2cccc(OC(F)F)c2)no1 (stereo not drawn) [Compound 101]
14 | ≤ 1 | CC(NC(=O)c1cc(C2CC2)nn1C)c1nc(-c2ccc(Cl)cc2)no1 (stereo not drawn) [Compound 9]
15 | 1 to 20 | Cc1nn(C(C)C)cc1C(=O)N[C@@H](C)c1nc(-c2cccc(OC(F)(F)F)c2)no1 [Compound 100]
16 | ≤ 1 | COc1cc(-c2noc([C@H](C)NC(=O)OC(C)(C)C)n2)cc(C)n1 [Compound 287, tert-butyl (S)-(1-(3-(2-methoxy-6-methylpyridin-4-yl)-1,2,4-oxadiazol-5-yl)ethyl)carbamate]
17 | 1 to 20 | CC[C@H](NC(=O)c1cc(C)nn1-c1cccnc1)c1nc(-c2ccnc(C)c2)no1 [Compound 231, (S)-3-methyl-N-(1-(3-(2-methylpyridin-4-yl)-1,2,4-oxadiazol-5-yl)propyl)-1-(pyridin-3-yl)-1H-pyrazole-5-carboxamide]
18 | ≤ 1 | Cn1nc(C(F)(F)F)cc1C(=O)NC1(c2nc(-c3cccc(F)c3)no2)COC1 [Compound 119]

Row | IC50 [µM] | Structure (SMILES)
19 | ≤ 1 | C[C@H](NC(=O)c1cn(C)nc1C(F)F)c1nc(-c2ccnc(C(F)(F)F)c2)no1 [Compound 235]
20 | 1 to 20 | Cc1nn(C(C)C)cc1C(=O)N[C@@H](C)c1nc(-c2ccc(F)c(F)c2)no1 [Compound 87]
21 | ≥ 20 | C[C@@H](NC(=O)c1cn(C)nc1C(F)F)c1nc(-c2cccc(F)c2)no1 [Compound 187, (R)-3-(difluoromethyl)-N-(1-(3-(3-fluorophenyl)-1,2,4-oxadiazol-5-yl)ethyl)-1-methyl-1H-pyrazole-4-carboxamide]
22 | ≤ 1 | C[C@H](NC(=O)c1ccnn1C1CC1)c1nc(-c2ccnc(C3CC3)c2)no1 [Compound 305, 2-cyclopropyl-N-[(1S)-1-[3-(2-cyclopropyl-4-pyridyl)-1,2,4-oxadiazol-5-yl]ethyl]pyrazole-3-carboxamide]
23 | ≤ 1 | CC(NC(=O)c1cc(C(F)(F)F)nn1C(F)F)c1nc(-c2cccc(Cl)c2)no1 (stereo not drawn) [Compound 73]
24 | ≥ 20 | Cc1ccnc(-c2noc([C@H](C)NC(=O)OC(C)(C)C)n2)c1 [Compound 285, tert-butyl (S)-(1-(3-(4-methylpyridin-2-yl)-1,2,4-oxadiazol-5-yl)ethyl)carbamate]
25 | 1 to 20 | Cc1cc(C(=O)N[C@@H](C)c2nc(-c3ccnc(C(F)(F)F)c3)no2)n(C)n1 [Compound 252]
26 | 1 to 20 | CC(NC(=O)c1cc(C(F)(F)F)nn1C)c1nc(-c2cccc(CC#N)c2)no1 (stereo not drawn) [Compound 178, N-(1-(3-(3-(cyanomethyl)phenyl)-1,2,4-oxadiazol-5-yl)ethyl)-1-methyl-3-(trifluoromethyl)-1H-pyrazole-5-carboxamide]
27 | ≤ 1 | C[C@H](NC(=O)c1ccnn1Cc1ccccc1)c1nc(-c2ccnc(C3CC3)c2)no1 [Compound 280, (S)-1-benzyl-N-(1-(3-(2-cyclopropylpyridin-4-yl)-1,2,4-oxadiazol-5-yl)ethyl)-1H-pyrazole-5-carboxamide]
28 | 1 to 20 | CC(C)OCc1cc(-c2noc([C@H](C)NC(=O)c3cc(C(F)(F)F)nn3C)n2)ccn1 [Compound 259, N-[(1S)-1-[3-[2-(isopropoxymethyl)-4-pyridyl]-1,2,4-oxadiazol-5-yl]ethyl]-2-methyl-5-(trifluoromethyl)pyrazole-3-carboxamide]
29 | 1 to 20 | Cn1nc(C(F)(F)F)cc1C(=O)NC(CNS(C)(=O)=O)c1nc(-c2cccc(F)c2)no1 (stereo not drawn) [Compound 169]
30 | ≤ 1 | CC[C@H](NC(=O)c1cc(C)nn1-c1ccccc1)c1nc(-c2ccnc(C)c2)no1 [Compound 218, (S)-3-methyl-N-(1-(3-(2-methylpyridin-4-yl)-1,2,4-oxadiazol-5-yl)propyl)-1-phenyl-1H-pyrazole-5-carboxamide]
31 | ≥ 20 | COCc1cc(-c2noc([C@H](C)NC(=O)OC(C)(C)C)n2)ccn1 [Compound 289, tert-butyl (S)-(1-(3-(2-(methoxymethyl)pyridin-4-yl)-1,2,4-oxadiazol-5-yl)ethyl)carbamate]
32 | 1 to 20 | C[C@H](NC(=O)c1cn(C)nc1C(F)(F)F)c1nc(-c2cccc(F)c2)no1 [Compound 160]
33 | ≥ 20 | C[C@H](NC(=O)c1cc(C2CC2)nn1C)c1nc(-c2cccc(F)c2)no1 (single isomer, unassigned) [Compound 94]
34 | ≥ 20 | Cc1nn(C(C)C)cc1C(=O)N[C@@H](C)c1nc(-c2cccc(C#N)c2)no1 [Compound 85]
35 | 1 to 20 | CC[C@H](NC(=O)c1cc(C)nn1C1CCOCC1)c1nc(-c2ccnc(C)c2)no1 [Compound 217, (S)-3-methyl-N-(1-(3-(2-methylpyridin-4-yl)-1,2,4-oxadiazol-5-yl)propyl)-1-(tetrahydro-2H-pyran-4-yl)-1H-pyrazole-5-carboxamide]
36 | ≤ 1 | CCOC(=O)N[C@@H](C)c1nc(-c2ccnc(C3CC3)c2)no1 [Compound 274]
